From patent US20060173064A1, “(-)-1-(3,4-Dichlorophenyl)-3-azabi cyclo[3.1.0]hexane, compositions thereof, and uses for treating alcohol-related disorders” (priority 2001, published 2006) come the findings set out here.

Marks after values point to notes of the source that are not given here.

The target of series [1] is T1, serotonin transporter (serotonin uptake site), human platelet membranes (Homo sapiens, UniProt P31645).
T1 construct: The receptor source was human platelet membranes; from tissue; host or cells: human platelets (membranes)
T1 sequence (P31645 whole entry): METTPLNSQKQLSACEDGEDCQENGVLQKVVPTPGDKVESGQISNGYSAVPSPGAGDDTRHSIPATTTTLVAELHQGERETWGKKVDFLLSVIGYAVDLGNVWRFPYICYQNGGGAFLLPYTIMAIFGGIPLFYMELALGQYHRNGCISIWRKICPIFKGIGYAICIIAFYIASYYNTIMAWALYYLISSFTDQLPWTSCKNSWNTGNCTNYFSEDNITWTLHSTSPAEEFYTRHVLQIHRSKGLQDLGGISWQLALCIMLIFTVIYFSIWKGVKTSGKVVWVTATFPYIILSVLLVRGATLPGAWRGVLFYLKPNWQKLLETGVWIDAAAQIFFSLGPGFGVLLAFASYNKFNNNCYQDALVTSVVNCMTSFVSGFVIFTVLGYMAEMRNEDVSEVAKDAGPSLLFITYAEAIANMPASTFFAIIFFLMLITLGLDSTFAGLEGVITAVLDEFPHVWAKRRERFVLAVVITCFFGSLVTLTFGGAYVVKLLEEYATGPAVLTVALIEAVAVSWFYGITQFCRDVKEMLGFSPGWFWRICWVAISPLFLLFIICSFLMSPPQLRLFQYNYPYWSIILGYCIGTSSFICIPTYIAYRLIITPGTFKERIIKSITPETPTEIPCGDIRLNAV
As to the kind of experiment: Serotonin transporter binding assay ([3H]citalopram). The conditions noted are these: summary of Table 3; hydrochloride. On the procedure:
Reactions were carried out in 50 mM TRIS-HCl (pH 7.4), containing 120 mM NaCl and 5 mM KCl and at 25° C. for one hour. The reaction was terminated by rapid vacuum filtration onto glass fiber filters. Radioactivity trapped in the filters was determined and compared to control values in order to ascertain the interactions of the test compound with the serotonin uptake site.

For series [2], the target named is hSERT (recombinant human serotonin transporter) (Homo sapiens, UniProt P31645). The series can be described thus: Inhibition of [3H]5-HT uptake in HEK-hSERT cells. The conditions noted are these: (−)-enantiomer versus the racemate.
hSERT (recombinant human serotonin transporter), sequence (P31645 whole entry): as above
The target of series [3] is norepinephrine transporter (norepinephrine uptake site), rat forebrain membranes (Rattus norvegicus, UniProt Q63380). The conditions noted are these: Table 2; hydrochloride. As for the experimental part:
The norepinephrine transporter binding assay was performed according to the methods described in Raisman et al., 1982, Eur. J. Pharmacol. 78:345-351 and Langer et al., 1981, Eur. J. Pharmacol. 72:423. […] Reactions were carried out in 50 mM TRIS-HCI (pH 7.4), containing 300 mM NaCl and 50 mM KCl and at 0° C. to 4° C. for four hours. The reaction was terminated by rapid vacuum filtration onto glass fiber filters. Radioactivity trapped in the filters was determined and compared to control values in order to ascertain the interactions of the test compound with the norepinephrine uptake site.

The subject of a further series is male mHEP rat. As to the kind of experiment: Volitional consumption of ethanol in the HEP (high ethanol preferring) rat. The series is classed as in vivo. The conditions noted are these: for Ethanol Consumption, Mean ± s.e.m., pre-: three-day pre-treatment period (baseline); for Ethanol Consumption, Mean ± s.e.m., pre- / Ethanol Consumption, Mean ± s.e.m., during / Ethanol Consumption, Mean ± s.e.m., post-: male mHEP rat; for Ethanol Consumption, Mean ± s.e.m., during: during three days of injections; for Ethanol Consumption, Mean ± s.e.m., post-: three-day post-treatment period. As for the experimental part:
(§1) The study described here was performed using procedures modified from previous reports (Myers R D et al., Genetics of alcoholism: Rapid development of a new high ethanol preferring (HEP) strain of female and male rats, Alcohol 16:343-357, 1998; […] et al., Effects of NMDA glutamate receptor antagonist drugs on the consumption of ethanol by a genetic drinking rat, Brain Res. Bull 64:279-284, 2004). Briefly, subject male rats were taken from the selectively bred Myers' high ethanol preferring (MHEP) line (Myers et al., Alcohol 16:343-357, 1998), which drink copious amounts of ethanol, even in the presence of palatable alternatives. These rats were subjected to an ethanol preference selection protocol, 3% to 30% during a 10-day “step up” procedure that ensures the maximum amount of drinking at each rat's desired ethanol concentration, with the proportion of ethanol to total fluid consumption of approximately 50%. After the rats were selected and drinking a fixed concentration of ethanol, they were subjected to a three-day baseline ethanol consumption period. This was followed by a three-day period of test drug administration (IP), then a three-day post-treatment period. During this entire study, the following parameters were measured on a daily basis: volume of water consumed; volume of ethanol solution consumed; weight of food consumed; and rat body weight. […] Doses were calculated as the free base form of each drug. Once drinking stabilized to baseline levels post-treatment, a different dose of drug was administered. […] The order of drug doses or vehicle (0.9% saline) was set up in a counter-balanced design. The data were averaged for each period for each rat then grouped and analyzed by one-way repeated measures ANOVA and Tukey's post-hoc analysis.

Series [4] can be described thus: Body weight of the mHEP rat in the ethanol study. In kind it is in vivo. The conditions noted are these: for Bodyweight, Mean ± s.e.m., pre-: three-day pre-treatment period (baseline); for Bodyweight, Mean ± s.e.m., pre- / Bodyweight, Mean ± s.e.m., during / Bodyweight, Mean ± s.e.m., post-: male mHEP rat; for Bodyweight, Mean ± s.e.m., during: during three days of injections; for Bodyweight, Mean ± s.e.m., post-: three-day post-treatment period. On the procedure:
as §1

In series [5] the target is T2, dopamine transporter (dopamine uptake site), guinea pig striatal membranes (Cavia porcellus, UniProt H0WCX4).
T2 construct: The receptor source was guinea pig striatal membranes; from tissue; host or cells: guinea pig striatum (membranes)
T2 sequence (H0WCX4 1-619): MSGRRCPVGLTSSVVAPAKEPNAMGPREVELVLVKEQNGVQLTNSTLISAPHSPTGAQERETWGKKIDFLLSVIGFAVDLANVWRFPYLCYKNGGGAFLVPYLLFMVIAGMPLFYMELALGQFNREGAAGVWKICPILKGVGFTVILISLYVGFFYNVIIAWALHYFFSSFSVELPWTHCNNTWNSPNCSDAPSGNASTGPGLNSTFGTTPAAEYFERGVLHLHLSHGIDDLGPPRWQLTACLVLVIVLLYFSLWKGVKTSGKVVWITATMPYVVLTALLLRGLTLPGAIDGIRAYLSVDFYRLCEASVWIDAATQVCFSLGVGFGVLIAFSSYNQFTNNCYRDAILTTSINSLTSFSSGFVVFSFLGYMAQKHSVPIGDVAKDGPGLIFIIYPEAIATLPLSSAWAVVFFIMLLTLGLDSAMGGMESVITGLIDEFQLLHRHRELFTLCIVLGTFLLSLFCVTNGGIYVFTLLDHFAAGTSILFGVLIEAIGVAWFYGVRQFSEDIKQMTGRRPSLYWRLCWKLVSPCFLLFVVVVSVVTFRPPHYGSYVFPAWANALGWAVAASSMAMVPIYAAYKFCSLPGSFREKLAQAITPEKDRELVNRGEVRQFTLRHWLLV
As to the kind of experiment: Dopamine transporter binding assay ([3H]WIN 35,428). The conditions noted are these: summary of Table 1. On the procedure: The dopamine uptake transporter binding assay was performed according to the methods described in Madras et al., 1989, Mol. Pharmacol. 36(4):518-524 and Javitch et al., 1984, Mol. Pharmacol. 26(1):35-44. […] Reactions were carried out in 50 mM TRIS-HCI (pH 7.4), containing 120 mM NaCl and at 0° C. to 4° C. for two hours. The reaction was terminated by rapid vacuum filtration onto glass fiber filters. Radioactivity trapped in the filters was determined and compared to control values in order to ascertain the interactions of the test compound with the dopamine uptake site.

norepinephrine transporter (norepinephrine uptake site), rat forebrain membranes, sequence (Q63380 1-617): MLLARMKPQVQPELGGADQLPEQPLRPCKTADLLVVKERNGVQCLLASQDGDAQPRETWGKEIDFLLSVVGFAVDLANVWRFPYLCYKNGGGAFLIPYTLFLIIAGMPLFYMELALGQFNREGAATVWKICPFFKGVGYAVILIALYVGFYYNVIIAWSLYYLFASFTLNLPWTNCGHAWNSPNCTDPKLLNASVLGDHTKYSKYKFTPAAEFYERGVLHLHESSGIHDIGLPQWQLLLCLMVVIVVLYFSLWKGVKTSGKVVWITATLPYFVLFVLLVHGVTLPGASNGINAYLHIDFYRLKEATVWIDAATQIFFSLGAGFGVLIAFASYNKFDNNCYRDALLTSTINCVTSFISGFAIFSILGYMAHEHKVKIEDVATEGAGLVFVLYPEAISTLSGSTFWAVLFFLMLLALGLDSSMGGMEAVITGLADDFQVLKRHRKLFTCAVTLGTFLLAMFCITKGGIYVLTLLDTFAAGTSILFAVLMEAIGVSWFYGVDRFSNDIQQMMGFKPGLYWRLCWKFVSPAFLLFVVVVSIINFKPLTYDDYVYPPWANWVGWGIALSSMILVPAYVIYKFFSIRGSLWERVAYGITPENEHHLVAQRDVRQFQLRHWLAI

`Cl.Clc1ccc([C@@]23CNC[C@@H]2C3)cc1Cl` (single isomer, unassigned) [(−)-1-(3,4-dichlorophenyl)-3-azabicyclo[3.1.0]hexane HCl] [(−)-1-(3,4-dichlorophenyl)-3-azabicyclo[3.1.0]hexane hydrochloride]: the “affinity for the serotonin uptake site (in words)” value in series [1] is given as “no measurable affinity”. For the same molecule, the “difference in affinity, uptake at the serotonin transporter” value in series [2] was 9.6 fold. Moreover, in series [3], the “affinity for the norepinephrine uptake site (in words)” value was “no measurable affinity”.

Regarding `Cl.Clc1ccc([C@@]23CNC[C@@H]2C3)cc1Cl` (single isomer, unassigned) [(−)-1-(3,4-dichlorophenyl)-3-azabicyclo[3.1.0]hexane hydrochloride], the “Ethanol Consumption, Mean ± s.e.m., pre-” value is given as 5.39 ± 0.89 g ethanol/kg/day in the series on male mHEP rat (2.5 mg/kg b.i.d. IP group), 6.00 ± 0.59 g ethanol/kg/day with male mHEP rat (5.0 mg/kg b.i.d. IP group), 6.77 ± 0.51 g ethanol/kg/day with male mHEP rat (10.0 mg/kg b.i.d. IP group) and 5.26 ± 0.49 g ethanol/kg/day in the series on male mHEP rat (20.0 mg/kg b.i.d. IP group). For the same molecule, the “Ethanol Consumption, Mean ± s.e.m., during” value was found to be 4.32 ± 0.69 g ethanol/kg/day in the series with male mHEP rat (2.5 mg/kg b.i.d. IP), 4.33 ± 0.62 g ethanol/kg/day in the series with male mHEP rat (5.0 mg/kg b.i.d. IP), 3.50 ± 0.45 g ethanol/kg/day in the series with male mHEP rat (10.0 mg/kg b.i.d. IP) and 1.80 ± 0.28 g ethanol/kg/day in the series on male mHEP rat (20.0 mg/kg b.i.d. IP). For the same molecule, the “Ethanol Consumption, Mean ± s.e.m., post-” value is given as 5.79 ± 0.86^a g ethanol/kg/day in the series on male mHEP rat (2.5 mg/kg b.i.d. IP), 5.66 ± 0.64 g ethanol/kg/day in the series with male mHEP rat (5.0 mg/kg b.i.d. IP), 4.15 ± 0.61 g ethanol/kg/day in the series with male mHEP rat (10.0 mg/kg b.i.d. IP) and 2.89 ± 0.45 g ethanol/kg/day with male mHEP rat (20.0 mg/kg b.i.d. IP). Besides, the “effect on ethanol consumption during the post-treatment period (in words)” value with male mHEP rat (10 mg/kg b.i.d., post-treatment period) is given as “significant carry over effect”. For the same molecule, the “decrease in the proportion of alcohol consumed (volume of ethanol / total volume of ethanol solution and water)” value is recorded as 41% in the series on male mHEP rat (20 mg/kg b.i.d., after treatment) and 62.3% with male mHEP rat (20 mg/kg b.i.d., during treatment). In the series on male mHEP rat (20 mg/kg b.i.d., post-treatment period), the “ethanol consumption depressed compared to the pre-treatment period” value is on record as 55.1%. The “decrease in ethanol consumption compared to the pre-treatment period” value with male mHEP rat (20 mg/kg b.i.d., treatment period) was determined as 65.8%. Also, in the series with male mHEP rat (across doses, mHEP rat), the “amount of ethanol consumed (in words)” value was “strong dose-dependent decrease in consumption”. In the series with male mHEP rat (dose range of 5.0 to 20 mg/kg b.i.d.), the “volitional consumption of ethanol (in words)” value is on record as “significantly reduced”. The “proportion of ethanol consumed (in words)” value in the series on male mHEP rat (mHEP rat) is “strong decrease”. Moreover, the “Bodyweight, Mean ± s.e.m., pre-” value in series [4] (2.5 mg/kg b.i.d. IP group) amounted to 0.369 ± 0.019 kg; in series [4] (5.0 mg/kg b.i.d. IP group) it was 0.392 ± 0.009 kg; in series [4] (10.0 mg/kg b.i.d. IP group), 0.381 ± 0.028 kg; in series [4] (20.0 mg/kg b.i.d. IP group) it was 0.421 ± 0.015 kg. Besides, the “Bodyweight, Mean ± s.e.m., during” value in series [4] (2.5 mg/kg b.i.d. IP) turned out to be 0.372 ± 0.019 kg; in series [4] (5.0 mg/kg b.i.d. IP) it was 0.394 ± 0.009 kg; in series [4] (10.0 mg/kg b.i.d. IP) it was 0.381 ± 0.028 kg; in series [4] (20.0 mg/kg b.i.d. IP), 0.423 ± 0.015 kg. In addition, the “Bodyweight, Mean ± s.e.m., post-” value in series [4] (2.5 mg/kg b.i.d. IP) is recorded as 0.373 ± 0.019 kg; in series [4] (5.0 mg/kg b.i.d. IP), 0.394 ± 0.007 kg; in series [4] (10.0 mg/kg b.i.d. IP) it was 0.382 ± 0.028 kg; in series [4] (20.0 mg/kg b.i.d. IP), 0.418 ± 0.015^a kg. Also, the “body weight (in words)” value in series [4] (treated rats, as expected for rats of this age) was “small increases in body weight”. Moreover, the “affinity for the dopamine uptake site (in words)” value in series [5] is “have affinity”.

For the molecule `Cl.Clc1ccc([C@@]23CNC[C@@H]2C3)cc1Cl` (single isomer, unassigned) [(+)-1-(3,4-dichlorophenyl)-3-azabicyclo[3.1.0]hexane HCl] [(+)-1-(3,4-dichlorophenyl)-3-azabicyclo[3.1.0]hexane hydrochloride, reference compound], the “affinity for the serotonin uptake site (in words)” value in series [1] is reported as “has affinity”. Besides, the “affinity for the norepinephrine uptake site (in words)” value in series [3] is “has affinity”.

With `Cl.Clc1ccc([C@@]23CNC[C@@H]2C3)cc1Cl` (single isomer, unassigned) [(+)-1-(3,4-dichlorophenyl)-3-azabicyclo[3.1.0]hexane hydrochloride, reference compound], the “affinity for the dopamine uptake site (in words)” value in series [5] is “have affinity”.
